The values that follow are results of earlier work, collected in patent US6764831B2, “Methods and compositions for pain management” (priority 1998, dated 2004).

For data set [1] the following is noted: injected into the brachial artery of humans.
The test system of a further data set is cholinesterase (ChE). Conditions: muscle relaxants used with anesthesia.
In data set [2] the test system is ACh level in the extracellular space. Conditions: injection into rats.

On to `CC(=O)OCC[N+](C)(C)C` [ACh, acetylcholine], for which the “pain produced on injection” value in data set [1] is listed as “extreme pain was produced”. `COc1ccc(C[C@@H]2c3cc(OC)c(OC)cc3CC[N@+]2(C)CCC(=O)OCCCCCOC(=O)CC[N@@+]2(C)CCc3cc(OC)c(OC)cc3[C@H]2Cc2ccc(OC)c(OC)c2)cc1OC` [NIMBEX]: in the data set with cholinesterase (ChE), the “effect on cholinesterase (ChE)” value is “no effect”. In the case of `CC(=O)O[C@H]1C[C@@H]2CC[C@@H]3[C@H](CC[C@@]4(C)[C@H]3C[C@H]([N+]3(C)CCCCC3)[C@@H]4OC(C)=O)[C@@]2(C)C[C@@H]1N1CCCCC1.[Br-]` [NOCURON], in the data set with cholinesterase (ChE), the “effect on cholinesterase (ChE)” value is listed as “no effect”.

With `C=CC[N+]1([C@H]2C[C@H]3[C@@H]4CC[C@H]5C[C@H](O)[C@@H](N6CCOCC6)C[C@]5(C)[C@H]4CC[C@]3(C)[C@H]2OC(C)=O)CCCC1` [ROCURONIUM], the “effect on cholinesterase (ChE)” value in the data set with cholinesterase (ChE) is “no effect”.

With `C[N+](C)(C)CCOC(=O)CCC(=O)OCC[N+](C)(C)C` [Succinylcholine], the “effect on cholinesterase (ChE)” value with cholinesterase (ChE) is on record as “no effect”. Regarding `CCCCCCCNC(=O)Oc1ccc2c(c1)[C@]1(C)CCN(C)[C@@H]1N2C` [heptylphysostigmine], the “ACh level in the extracellular space” value in data set [2] was “elevation”. As to `CN(C)C(=O)Oc1cccc([N+](C)(C)C)c1` [neostigmine], the cholinesterase inhibition result with cholinesterase is “inhibit”. In addition, the “extracellular ACh level” value in the data set with extracellular ACh level is “above detection limit”.
